Measured values as given in patent publication US10738028B2, “Spiro three-membered ring, spiro five-membered ring peptide deformylase inhibitor and use thereof in antibacteria and anti-tumor” (priority 2016, dated 2020).
≈ marks a conversion by molar mass, not a printed value. Where two headings read alike, the source gives them in different places.

Assays:
Assay type in all cases: cell-based
[1] = test system: methicillin-sensitive Staphylococcus epidermidis (MSSE); test: MIC, two-fold agar dilution (CLSI), clinical isolates
How it was run: (§1)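 Samples are serially diluted two-fold in agar following CLSI guidance. Plates are then inoculated with the tested strains. The lowest inhibiting concentration is recorded as MIC.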

[2] = test system: methicillin-resistant Staphylococcus epidermidis (MRSE); test: as above
How it was run: as §1

[3] = test system: Enterococcus faecium (EFM); test: as above
How it was run: as §1

[4] = test system: Streptococcus pneoumoniae (SPN); test: as above
How it was run: as §1

[5] = test system: Enterococcus faecalis (EFA); test: as above
How it was run: as §1

[6] = test system: methicillin-resistant Staphylococcus aureus (MRSA); test: as above
How it was run: as §1

[7] = test system: methicillin-sensitive Staphylococcus aureus (MSSA); test: as above
How it was run: as §1

[8] = test system: Escherichia coli (including ESBLs, non-ESBLs); test: as above
How it was run: as §1

[9] = test system: Moraxella catarrhalis (BCA); test: as above; conditions: for Anti-bacterial activity (MIC), strain BCA 14-10: clinical isolate BCA 14-10
How it was run: as §1

[10] = test system: HCT-116 colorectal cancer cell line; test: CCK-8 proliferation inhibition; conditions: concentration of 30 μM, 72 hours, CCK-8; for inhibition at 30 µM: Homo sapiens, HCT-116, 72 h
How it was run: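 Proliferation over 72 hours of compound treatment was measured with CCK-8 against a 1‰ DMSO control.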

[11] = test system: MGC-803 gastric cancer cell line; test: CCK-8 proliferation inhibition; conditions: concentration of 30 μM; for inhibition at 30 µM: Homo sapiens, MGC-803, 72 h
How it was run: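 Using media specific to each line (1640 for MGC-803 and Jurkat, F12 for PC3, DMEM high glucose for MCF-7, each with 10% newborn bovine serum), cells at 2000/well were treated for 72 h with serially formulated compounds, then assessed with CCK-8 diluted 1:10.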

[12] = test system: A549 lung cancer cell line; test: CCK-8 proliferation inhibition; conditions: concentration of 30 μM; for inhibition at 30 µM: Homo sapiens, A549, 72 h
How it was run: (§2)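 Plating at 2000 cells/well, then incubation overnight at 37° C. Next, a range of compound concentrations for 72 hours (control 1‰ DMSO). Finally, medium decanted and CCK-8 diluted 1:10 added.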

[13] = test system: BEL-7402 liver cancer cell line; test: CCK-8 proliferation inhibition; conditions: concentration of 30 μM; for Inhibition of proliferation, Liver cancer BEL-7402: 72 hours, 30 µM
How it was run: as §2

COC(=O)c1sccc1NC(=O)[C@@H]1CC2(CC2)CN1C(=O)[C@H](CC1CCCC1)CN(O)C=O [Example 34]
MIC (anti-bacterial activity) ([1]; strain MSSE 15-3): 4 µg/mL (≈ 8.38 µM) | MIC (anti-bacterial activity) ([1]; strain MSSE 15-4): 4 µg/mL (≈ 8.38 µM) | MIC (anti-bacterial activity) ([1]; strain MSSE 15-5): 4 µg/mL (≈ 8.38 µM) | MIC (anti-bacterial activity) ([1]; strain MSSE 15-6): 1 µg/mL (≈ 2.09 µM) | MIC (anti-bacterial activity) ([2]; strain MRSE 15-1): 0.25 µg/mL (≈ 0.523 µM) | MIC (anti-bacterial activity) ([2]; strain MRSE 15-2): 4 µg/mL (≈ 8.38 µM) | MIC (anti-bacterial activity) ([2]; strain MRSE 15-3): 4 µg/mL (≈ 8.38 µM) | MIC (anti-bacterial activity) ([2]; strain MRSE 15-7): 4 µg/mL (≈ 8.38 µM) | MIC (anti-bacterial activity) ([3]; strain EFM 15-1): 2 µg/mL (≈ 4.19 µM) | MIC (anti-bacterial activity) ([3]; strain EFM 15-2): 2 µg/mL (≈ 4.19 µM) | MIC (anti-bacterial activity) ([3]; strain EFM 15-3): 0.25 µg/mL (≈ 0.523 µM) | MIC (anti-bacterial activity) ([3]; strain EFM 15-4): 4 µg/mL (≈ 8.38 µM) | MIC (anti-bacterial activity) ([3]; strain EFM 15-5): 4 µg/mL (≈ 8.38 µM) | MIC (anti-bacterial activity) ([3]; strain EFM 15-6): 4 µg/mL (≈ 8.38 µM) | MIC (anti-bacterial activity) ([4]; strain SPN 16-2): 0.125 µg/mL (≈ 0.262 µM) | MIC (anti-bacterial activity) ([4]; strain SPN 16-4): 4 µg/mL (≈ 8.38 µM) | MIC (anti-bacterial activity) ([5]; strain EFA 15-1): 4 µg/mL (≈ 8.38 µM) | MIC (anti-bacterial activity) ([5]; strain EFA 15-2): 4 µg/mL (≈ 8.38 µM) | MIC (anti-bacterial activity) ([5]; strain EFA 15-3): 2 µg/mL (≈ 4.19 µM) | MIC (anti-bacterial activity) ([5]; strain EFA 15-4): 4 µg/mL (≈ 8.38 µM) | MIC (anti-bacterial activity) ([5]; strain EFA 15-5): 4 µg/mL (≈ 8.38 µM) | MIC (anti-bacterial activity) ([5]; strain EFA 15-6): 4 µg/mL (≈ 8.38 µM) | MIC (anti-bacterial activity) ([5]; strain EFA 15-9): 4 µg/mL (≈ 8.38 µM) | MIC (anti-bacterial activity) ([6]; strain MRSA 15-1): 1 µg/mL (≈ 2.09 µM) | MIC (anti-bacterial activity) ([6]; strain MRSA 15-2): 1 µg/mL (≈ 2.09 µM) | MIC (anti-bacterial activity) ([6]; strain MRSA 15-3): 1 µg/mL (≈ 2.09 µM) | MIC (anti-bacterial activity) ([6]; strain MRSA 15-4): 0.5 µg/mL (≈ 1.05 µM) | MIC (anti-bacterial activity) ([7]; strain MSSA 15-3): 1 µg/mL (≈ 2.09 µM) | MIC (anti-bacterial activity) ([7]; strain MSSA 15-4): 1 µg/mL (≈ 2.09 µM) | MIC (anti-bacterial activity) ([7]; strain MSSA 15-5): 1 µg/mL (≈ 2.09 µM) | MIC (anti-bacterial activity) ([7]; strain MSSA 15-6): 1 µg/mL (≈ 2.09 µM) | MIC (anti-bacterial activity) ([8]; strain ECO+ 15-1): 128 µg/mL (≈ 268 µM) | MIC (anti-bacterial activity) ([8]; strain ECO+ 15-2): 128 µg/mL (≈ 268 µM) | MIC (anti-bacterial activity) ([8]; strain ECO+ 15-3): 128 µg/mL (≈ 268 µM) | MIC (anti-bacterial activity) ([8]; strain ECO+ 15-4): 128 µg/mL (≈ 268 µM) | MIC (anti-bacterial activity) ([8]; strain ECO− 15-1): 128 µg/mL (≈ 268 µM) | MIC (anti-bacterial activity) ([8]; strain ECO− 15-2): 128 µg/mL (≈ 268 µM) | MIC (anti-bacterial activity) ([8]; strain ECO− 15-3): 128 µg/mL (≈ 268 µM) | MIC (anti-bacterial activity) ([8]; strain ECO− 15-4): 128 µg/mL (≈ 268 µM) | Anti-bacterial activity (MIC), strain BCA 14-10 [9]: 2 µg/mL | MIC (anti-bacterial activity) ([9]; strain BCA 14-1): 4 µg/mL (≈ 8.38 µM) | MIC (anti-bacterial activity) ([9]; strain BCA 14-4): 4 µg/mL (≈ 8.38 µM) | MIC (anti-bacterial activity) ([9]; strain BCA 14-5): 1 µg/mL (≈ 2.09 µM) | MIC (anti-bacterial activity) ([9]; strain BCA 14-6): 4 µg/mL (≈ 8.38 µM) | MIC (anti-bacterial activity) ([9]; strain BCA 14-7): 2 µg/mL (≈ 4.19 µM) | MIC (anti-bacterial activity) ([9]; strain BCA 14-8): 2 µg/mL (≈ 4.19 µM) | inhibition at 30 µM ([10]; Table 5, read-out: Inhibition of proliferation, Colorectal cancer HCT116): ≥ 30% | inhibition at 30 µM ([10]; read-out: HCT116 inhibition rate/%): 36% | inhibition at 30 µM [11]: 26% | inhibition at 30 µM [12]: 35% | inhibition at 30 µM ([13]; Homo sapiens, Bel-7402, 72 h): > 50% | Inhibition of proliferation, Liver cancer BEL-7402 [13]: 63%

O=C(C[C@@H](CC1CCCC1)C(=O)N1CC2(CC2)C[C@H]1C(=O)Nc1cnccn1)NO [Example 62]
Anti-bacterial activity (MIC), strain MSSE 15-3 ([1]; clinical isolate MSSE 15-3): 0.5 µg/mL | Anti-bacterial activity (MIC), strain MSSE 15-4 ([1]; clinical isolate MSSE 15-4): 0.5 µg/mL | Anti-bacterial activity (MIC), strain MSSE 15-5 ([1]; clinical isolate MSSE 15-5): 0.5 µg/mL | Anti-bacterial activity (MIC), strain MSSE 15-6 ([1]; clinical isolate MSSE 15-6): 0.5 µg/mL | Anti-bacterial activity (MIC), strain MRSE 15-1 ([2]; clinical isolate MRSE 15-1): 16 µg/mL | Anti-bacterial activity (MIC), strain MRSE 15-2 ([2]; clinical isolate MRSE 15-2): 16 µg/mL | Anti-bacterial activity (MIC), strain MRSE 15-3 ([2]; clinical isolate MRSE 15-3): 0.5 µg/mL | Anti-bacterial activity (MIC), strain MRSE 15-7 ([2]; clinical isolate MRSE 15-7): 0.5 µg/mL | Anti-bacterial activity (MIC), strain EFM 15-1 ([3]; clinical isolate EFM 15-1): > 32 µg/mL | Anti-bacterial activity (MIC), strain EFM 15-2 ([3]; clinical isolate EFM 15-2): > 32 µg/mL | Anti-bacterial activity (MIC), strain EFM 15-3 ([3]; clinical isolate EFM 15-3): > 32 µg/mL | Anti-bacterial activity (MIC), strain EFM 15-4 ([3]; clinical isolate EFM 15-4): > 32 µg/mL | Anti-bacterial activity (MIC), strain EFM 15-5 ([3]; clinical isolate EFM 15-5): 0.5 µg/mL | Anti-bacterial activity (MIC), strain EFM 15-6 ([3]; clinical isolate EFM 15-6): 0.5 µg/mL | Anti-bacterial activity (MIC), strain SPN 16-2 ([4]; clinical isolate SPN 16-2): 0.25 µg/mL | Anti-bacterial activity (MIC), strain SPN 16-4 ([4]; clinical isolate SPN 16-4): 0.5 µg/mL | Anti-bacterial activity (MIC), strain EFA 15-1 ([5]; clinical isolate EFA 15-1): > 32 µg/mL | Anti-bacterial activity (MIC), strain EFA 15-2 ([5]; clinical isolate EFA 15-2): > 32 µg/mL | Anti-bacterial activity (MIC), strain EFA 15-3 ([5]; clinical isolate EFA 15-3): > 32 µg/mL | Anti-bacterial activity (MIC), strain EFA 15-4 ([5]; clinical isolate EFA 15-4): > 32 µg/mL | Anti-bacterial activity (MIC), strain EFA 15-5 ([5]; clinical isolate EFA 15-5): > 32 µg/mL | Anti-bacterial activity (MIC), strain EFA 15-6 ([5]; clinical isolate EFA 15-6): > 32 µg/mL | Anti-bacterial activity (MIC), strain EFA 15-9 ([5]; clinical isolate EFA 15-9): 8 µg/mL | Anti-bacterial activity (MIC), strain MRSA 15-1 ([6]; clinical isolate MRSA 15-1): 0.125 µg/mL | Anti-bacterial activity (MIC), strain MRSA 15-2 ([6]; clinical isolate MRSA 15-2): 0.5 µg/mL | Anti-bacterial activity (MIC), strain MRSA 15-3 ([6]; clinical isolate MRSA 15-3): 0.5 µg/mL | Anti-bacterial activity (MIC), strain MRSA 15-4 ([6]; clinical isolate MRSA 15-4): 0.5 µg/mL | Anti-bacterial activity (MIC), strain MSSA 15-3 ([7]; clinical isolate MSSA 15-3): 0.5 µg/mL | Anti-bacterial activity (MIC), strain MSSA 15-4 ([7]; clinical isolate MSSA 15-4): 0.5 µg/mL | Anti-bacterial activity (MIC), strain MSSA 15-5 ([7]; clinical isolate MSSA 15-5): 16 µg/mL | Anti-bacterial activity (MIC), strain MSSA 15-6 ([7]; clinical isolate MSSA 15-6): 16 µg/mL | Anti-bacterial activity (MIC), strain ECO+ 15-1 ([8]; clinical isolate ECO+ 15-1): 0.5 µg/mL | Anti-bacterial activity (MIC), strain ECO+ 15-2 ([8]; clinical isolate ECO+ 15-2): 0.5 µg/mL | Anti-bacterial activity (MIC), strain ECO+ 15-3 ([8]; clinical isolate ECO+ 15-3): 0.5 µg/mL | Anti-bacterial activity (MIC), strain ECO+ 15-4 ([8]; clinical isolate ECO+ 15-4): 0.5 µg/mL | Anti-bacterial activity (MIC), strain ECO− 15-1 ([8]; clinical isolate ECO− 15-1): 16 µg/mL | Anti-bacterial activity (MIC), strain ECO− 15-2 ([8]; clinical isolate ECO− 15-2): 16 µg/mL | Anti-bacterial activity (MIC), strain ECO− 15-3 ([8]; clinical isolate ECO− 15-3): 16 µg/mL | Anti-bacterial activity (MIC), strain ECO− 15-4 ([8]; clinical isolate ECO− 15-4): 16 µg/mL | Anti-bacterial activity (MIC), strain BCA 14-1 ([9]; clinical isolate BCA 14-1): 2 µg/mL | Anti-bacterial activity (MIC), strain BCA 14-4 ([9]; clinical isolate BCA 14-4): 2 µg/mL | Anti-bacterial activity (MIC), strain BCA 14-5 ([9]; clinical isolate BCA 14-5): 0.5 µg/mL | Anti-bacterial activity (MIC), strain BCA 14-6 ([9]; clinical isolate BCA 14-6): 2 µg/mL | Anti-bacterial activity (MIC), strain BCA 14-7 ([9]; clinical isolate BCA 14-7): 2 µg/mL | Anti-bacterial activity (MIC), strain BCA 14-8 ([9]; clinical isolate BCA 14-8): 2 µg/mL | Anti-bacterial activity (MIC), strain BCA 14-10 [9]: 1 µg/mL | HCT116 inhibition rate/% ([10]; 30 µM): 79% | inhibition at 30 µM [11]: > 50% | Inhibition of proliferation, Gastric cancer MGC-803 ([11]; 72 hours, 30 µM): 64% | inhibition at 30 µM [12]: > 50% | Inhibition of proliferation, Lung cancer A549 ([12]; 72 hours, 30 µM): 59% | Inhibition of proliferation, Liver cancer BEL-7402 [13]: 75%
